Reference: US10123969B2, “Osmotic enhancement of drug/therapeutic delivery to the brain following infusion or injection into the cerebrospinal fluid” (Wisconsin Alumni Research Foundation, priority 2015, dated 2018)
In brackets after ≈: the same amount, converted by molar mass. Several values for one entry are separate records, joined by “and”; a condition that tells them apart may be missing. Equal entries are not always repeated. Entries after “also recorded” stand apart in the source; their conditions may differ. Where two headings read alike, the source gives them in different places. Blank lines part the entries; values can stand above or below the compound they belong to.

Columns and labels:
[1] = cited from earlier work
[2] = Perivascular counting of IgG signal in brain sections after intracisternal infusion with or without mannitol (ex vivo fluorescence, ImageJ); set-up: species or system rat
Experimental: Female Sprague-Dawley rats (180-240 g) were anesthetized to a surgical plane of anesthesia using 1.3 g/kg intraperitoneal urethane (boostered to effect), tracheotomized, and placed in a stereotaxic frame (Stoelting). Atropine (0.1 mg/kg every two hours) was given subcutaneously to reduce fluid secretion in lungs. An incision was made on the back of the neck and the muscles were dissected from the occipital bone to expose the atlanto-occipital membrane, which was retracted to reveal the dura overlying the cisterna magna. A custom cannula (˜1 cm long) made of 33 GA polyether ether ketone (PEEK, Plastics One) was connected to a Hamilton syringe controlled by an infusion pump (Quintessential Stereotaxic Injector, Stoelting) via polyethylene-10 tubing (Solomon Scientific). The tubing was prefilled with infusate (i.e., antibody solution with or without mannitol), the dura punctured with a dental needle, and the PEEK cannula immediately inserted at a 60-degree angle from the horizontal, advanced 1 mm into the cisterna magna, and sealed with cyanoacrylate.
For ex vivo fluorescence, AlexaFluor488 goat-anti-rabbit IgG in PBS (as provided) or in PBS with mannitol (described below) was infused at 1.6 uL/min for 50 minutes (80 uL total), a rate that is expected to be physiological as it is approximately half the CSF production rate and has been shown not to increase intracranial pressure in rats (Yang et al. J Trans Med 2013). The abdominal aorta was then cannulated and thirty minutes after the infusion completed the animal was perfused with ˜50 mL ice cold 0.01 M PBS followed by ˜450 mL 4% paraformaldehyde in 0.1 M phosphate buffer following a blood draw. The brain was removed and placed in 4% paraformaldehyde or phosphate buffered saline overnight, then sliced into 100 micrometer sections using a vibratome. Sections were imaged on an Olympus MVX10 using an Orca-flash 2.8 CMOS camera (Hamamatsu), a Lumen Dynamics X-Cite 120Q illuminator and an appropriate filter set (Chroma, U-M49002XL).
(§1) AlexaFluor 488 goat-anti-rabbit IgG was prepared in 0.27 M or 0.75 M mannitol in 0.01M PBS using 0.5 mL Amicon Ultra 100 kDa molecular weight cutoff centrifugal filters for buffer exchange. IgG was added to the filter and washed/spun from 0.5 mL three times with 0.27 M or 0.75 M mannitol solution (osmolality 507 mOsm/kg and 988 mOsm/kg, respectively); each spin was 10 minutes at 14,000 g. Recovery spin was 2 minutes at 1,000 g. Concentration of IgG protein (absorbance at 280 nm) was measured using a NanoDrop 2000 (Thermo Fisher), and after concentration/buffer exchange in mannitol the protein concentration was diluted to the same concentration so animals received identical amounts of IgG whether administered in provided buffer or buffer with mannitol.
To quantify perivascular signal between treatments, images were opened in ImageJ/Fiji, thresholded to eliminate background, and the Analyze Particles command was used to count and outline ‘particles’, or perivascular signal, with no restrictions on size or circularity, as well as providing additional information such as circularity, area, and average size.

[3] = Confocal imaging of cerebral internal carotid artery: IgG access to smooth muscle basement membrane; format: in vivo, rat
Experimental: as §1

[4] = Fluorescence imaging of spinal cord slices after intrathecal infusion of IgG with or without mannitol; format: in vivo, rat
Experimental: FIG. 8 (A-C). […] The spinal cord has a simple structure—an outer spinal white matter that has few blood vessels and an inner spinal gray matter which has a dense network of blood vessels.
Female Sprague-Dawley rats (180-240 g) were anesthetized to a surgical plane of anesthesia using 1.3 g/kg intraperitoneal urethane (boostered to effect), tracheotomized, and placed in a stereotaxic frame (Stoelting). Atropine (0.1 mg/kg every two hours) was given subcutaneously to reduce fluid secretion in lungs. […]
For ex vivo fluorescence, AlexaFluor488 goat-anti-rabbit IgG in PBS (as provided) or in PBS with mannitol (described below) was infused at 1.6 uL/min for 50 minutes (80 uL total), a rate that is expected to be physiological as it is approximately half the CSF production rate and has been shown not to increase intracranial pressure in rats (Yang et al. J Trans Med 2013). […]
as §1, with “IgG was added to the filter and washed/spun from 0.5 mL three times with 0.27 M or 0.75 M mannitol solution (osmolality 507 mOsm/kg and 988 mOsm/kg, respectively); each spin was 10 minutes at 14,000 g. Recovery spin was 2 minutes at 1,000 g.” left out

[5] = Osmolality of mannitol infusion solutions; format: physicochemical
Experimental: as §1
We have measured the osmolality of both the 0.27 M mannitol (507-564 mOsm/kg) and 0.75 M mannitol (988-1126 mOsm/kg) solutions.

[6] = hypertonic solutions, animals (Speck et al. 1988); cited from earlier work

SMILES: C[C@H](N)C(=O)O [L-Alanine]
solubility ([1]; at 25 C (Needham et al. 1971)): 1670 mM (≈ 149 mg/mL)

SMILES: N[C@@H](Cc1ccccc1)C(=O)O [L-Phenylalanine]
solubility ([1]; at 25 C (Needham et al. 1971)): 208 mM (≈ 34.4 mg/mL)

SMILES: CC(C)[C@H](N)C(=O)O [L-Valine]
solubility ([1]; at 25 C (Needham et al. 1971)): 514 mM (≈ 60.2 mg/mL)

SMILES: OC[C@@H](O)[C@@H](O[C@H]1O[C@H](CO)[C@@H](O)[C@H](O)[C@H]1O)[C@H](O)[C@@H](O)CO [Maltitol]
solubility ([1]; at 37 C (body temperature)): 5810 mM (≈ 2000 mg/mL)

SMILES: OC[C@@H](O)[C@@H](O)[C@H](O)[C@@H](O)CO [Sorbitol]
solubility in water ([1]; Merck Index): up to 83%

SMILES: O=C[C@H](O)[C@@H](O)[C@H](O)CO [Xylose]
solubility ([1]; Merck Index, temperature not given): 8320 mM (≈ 1250 mg/mL)
solubility ([1]; at 25 C (Gabas et al. 1988)): 3660 mM (≈ 549 mg/mL)

brain distribution of IgG via the perivascular spaces (in words) ([2]; 0.75 M mannitol co-infused with labeled 150 kDa IgG): dramatically greater brain distribution
number of vessels accessed by IgG (in words) ([2]; 0.75 M mannitol co-infusion vs 0.27 M mannitol co-infusion or IgG alone): significantly increased
number of vessels with perivascular signal (in words) ([2]; IgG with 0.75 M mannitol co-infusion vs single domain antibody without mannitol): significantly higher number of vessels
number of IgG perivascular profiles in spinal gray (in words) ([4]; 0.27 M mannitol co-infusion vs IgG alone): slight increase
number of perivascular spaces with IgG signal in spinal cord (in words) ([4]; 0.75 M mannitol co-infusion): striking increase
osmolality ([5]; 0.27 M mannitol solution): 507 mOsm/kg and 507-564 mOsm/kg
osmolality ([5]; 0.75 M mannitol solution): 988 mOsm/kg and 988-1126 mOsm/kg
SMILES: OC[C@@H](O)[C@@H](O)[C@H](O)[C@H](O)CO [mannitol]
perivascular access of IgG (in words) ([2]; 0.27 M mannitol co-infusion vs IgG alone (controls)): improved access; also recorded: slight increase
dose dependence of perivascular access of IgG ([2]; mannitol between 0.27 M and 0.75 M): dose-dependent manner; also recorded: dose-dependent increase
IgG access to the basement membrane of the smooth muscle layer (in words) ([3]; 0.27 M mannitol co-infusion vs IgG without mannitol): modestly increased; also recorded: no visible improvement
IgG access to the basement membrane of the smooth muscle layer (in words) ([3]; 0.75 M mannitol co-infusion vs IgG without mannitol): strikingly increased; also recorded: markedly improved; also recorded: noticeably increased
solubility ([1]; at 40 C (just above body temperature)): 2000 mM (≈ 364 mg/mL)
solubility ([1]; at 40 C (just above body temperature), listed as Mannitol): 1900 to 1940 mM
tolerability of intrathecal infusion [6]: well tolerated
